Measurements reported in ChEMBL document CHEMBL4673331 (J Med Chem, 2020).
Converted amounts (≈) assume the structure as drawn. The source made the active and inactive calls. No cut-off for these calls is given here.

Experiments:
[1] = Drug concentration in Balb/c mouse blood at 100 mg/kg, po BID by LC-MS/MS analysis; assay type: ADME, organism-based; settings: in vivo, read-out: Drug uptake
[2] = Clearance in Balb/c mouse at 1 mg/kg, iv administered as cassette dosing; assay type: ADME, organism-based; settings: in vivo
[3] = target: Baculoviral IAP repeat-containing protein 3/Mucosa-associated lymphoid tissue lymphoma translocation protein 1 (Homo sapiens, UniProt Q13489+Q9UDY8); experiment: Allosteric inhibition of MALT1-cIAP2 (unknown origin) fusion protein expressed in HEK293 cells assessed as reduction in NF-KappaB activation by luciferase reporter gene assay; assay type: cell-based
BJAB = experiment: Antiproliferation activity against human BJAB cells assessed as reduction in cell viability incubated for 14 days by resazurin dye-based fluorescence analysis; assay type: functional; settings: 336 h
[4] = Toxicity in Balb/c mouse assessed as change in body weight at 10 to 100 mg/kg, po BID administered at 12 hrs interval immunized post 1 hr first treatment; assay type: organism-based; settings: in vivo, dose 10-100 mg/kg
[5] = Toxicity in Balb/c mouse assessed as behavioral changes at 10 to 100 mg/kg, po BID administered at 12 hrs interval immunized post 1 hr first treatment; assay type: organism-based; settings: in vivo, dose 10-100 mg/kg
[6] = Permeability of compound by PAMPA assay; assay type: ADME
[7] = Volume of distribution at steady state in Sprague-Dawley rat at 1 mg/kg, iv administered as cassette dosing; assay type: ADME, organism-based; settings: in vivo, read-out: Vdss
Mus musculus = experiment: Anti-autoimmune disease activity in Balb/c mouse assessed as reduction in anti-DNP induced IgM producing B cells at 30 mg/kg, po administered twice at 12 hrs interval immunized post 1 hr first treatment measured after 8 days by ELISA relative to control; assay type: functional; set-up: scale not given: the % may be the effect or the level left; settings: time 8 day
[8] = target: T1, Mucosa-associated lymphoid tissue lymphoma translocation protein 1 (Homo sapiens, UniProt Q9UDY8); experiment: Allosteric inhibition of human wild-type […] MALT1 (329 to 824 residues) protease activity using Ac-Leu-Arg-Ser-Arg Rh110-dPro as substrate preincubated for 60 mins followed by substrate addition and measured after 60 mins by fluorescence assay
T1 sequence (Q9UDY8 whole entry): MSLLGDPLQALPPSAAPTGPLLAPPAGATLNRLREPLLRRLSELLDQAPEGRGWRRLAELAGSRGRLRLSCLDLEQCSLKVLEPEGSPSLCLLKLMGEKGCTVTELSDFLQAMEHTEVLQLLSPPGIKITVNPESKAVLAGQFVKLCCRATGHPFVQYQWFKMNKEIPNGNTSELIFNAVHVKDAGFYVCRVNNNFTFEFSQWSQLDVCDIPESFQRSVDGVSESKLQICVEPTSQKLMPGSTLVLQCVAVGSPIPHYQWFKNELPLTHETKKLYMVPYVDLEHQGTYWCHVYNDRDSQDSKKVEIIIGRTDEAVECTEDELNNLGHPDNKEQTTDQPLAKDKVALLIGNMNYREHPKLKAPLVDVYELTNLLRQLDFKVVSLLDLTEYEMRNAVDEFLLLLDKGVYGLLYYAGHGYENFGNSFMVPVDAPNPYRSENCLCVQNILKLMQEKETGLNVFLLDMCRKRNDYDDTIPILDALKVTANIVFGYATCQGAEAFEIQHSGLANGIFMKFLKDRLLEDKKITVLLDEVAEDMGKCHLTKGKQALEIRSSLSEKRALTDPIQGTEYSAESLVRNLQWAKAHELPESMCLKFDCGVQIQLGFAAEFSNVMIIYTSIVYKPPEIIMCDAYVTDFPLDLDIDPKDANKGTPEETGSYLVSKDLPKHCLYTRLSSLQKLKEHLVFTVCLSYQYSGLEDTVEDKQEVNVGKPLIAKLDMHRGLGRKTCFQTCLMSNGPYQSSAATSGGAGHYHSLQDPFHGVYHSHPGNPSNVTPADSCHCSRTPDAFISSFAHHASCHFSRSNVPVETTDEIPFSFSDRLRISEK

[9] = Thermodynamic solubility of the compound at pH 6.8; assay type: physicochemical; settings: buffer, read-out: Therm_solubility
[10] = Dose normalized AUC (0 to 24 hrs) in Balb/c mouse at 3 mg/kg, po administered as cassette dosing; assay type: ADME, organism-based; settings: in vivo
TMD8 = experiment: Antitumor activity against human TMD8 cells xenografted in SCID mouse assessed as tumor stasis at 100 mg/kg, po BID administered for 2 weeks; assay type: functional, organism-based
[11] = target: T2, Mucosa-associated lymphoid tissue lymphoma translocation protein 1 (Homo sapiens) (UniProt Q9UDY8); experiment: Allosteric inhibition of MALT1 protease activity in human OCI-LY3 cells assessed as accumulation of uncleaved substrate […] incubated for 24 hrs by Western blot analysis; assay type: cell-based; settings: OCILY3, filed as negative allosteric modulator, dose 50-5000 nM
T2 sequence (whole entry): T1 sequence (Q9UDY8 whole entry)

[12] = Clearance in Sprague-Dawley rat at 1 mg/kg, iv administered as cassette dosing; assay type: ADME, organism-based; settings: in vivo
OCI-Ly3 = experiment: Antiproliferation activity against human OCI-LY3 cells assessed as reduction in cell viability incubated for 14 days by resazurin dye-based fluorescence analysis; assay type: functional; settings: OCI-Ly3, 336 h
[13] = Drug concentration in Balb/c mouse blood at 10 mg/kg, po BID administered at 12 hrs interval immunized post 1 hr first treatment measured after 12 hrs post second dose by LC-MS/MS analysis; assay type: ADME, organism-based; settings: whole blood, read-out: Drug uptake
[14] = Inhibition of mixed lymphocyte reaction in rat PBMC cells assessed as reduction in [3H]-thymidine incorporation measured after 5 days in presence of Il-7 by microbeta counting method; assay type: cell-based
[15] = Toxicity in Balb/c mouse assessed as histopathological changes at 10 to 100 mg/kg, po BID administered at 12 hrs interval immunized post 1 hr first treatment; assay type: organism-based; settings: in vivo, dose 10-100 mg/kg

Baculoviral IAP repeat-containing protein 3/Mucosa-associated lymphoid tissue lymphoma translocation protein 1, sequence (Q13489 whole entry, one chain of several, the tested form may be a part): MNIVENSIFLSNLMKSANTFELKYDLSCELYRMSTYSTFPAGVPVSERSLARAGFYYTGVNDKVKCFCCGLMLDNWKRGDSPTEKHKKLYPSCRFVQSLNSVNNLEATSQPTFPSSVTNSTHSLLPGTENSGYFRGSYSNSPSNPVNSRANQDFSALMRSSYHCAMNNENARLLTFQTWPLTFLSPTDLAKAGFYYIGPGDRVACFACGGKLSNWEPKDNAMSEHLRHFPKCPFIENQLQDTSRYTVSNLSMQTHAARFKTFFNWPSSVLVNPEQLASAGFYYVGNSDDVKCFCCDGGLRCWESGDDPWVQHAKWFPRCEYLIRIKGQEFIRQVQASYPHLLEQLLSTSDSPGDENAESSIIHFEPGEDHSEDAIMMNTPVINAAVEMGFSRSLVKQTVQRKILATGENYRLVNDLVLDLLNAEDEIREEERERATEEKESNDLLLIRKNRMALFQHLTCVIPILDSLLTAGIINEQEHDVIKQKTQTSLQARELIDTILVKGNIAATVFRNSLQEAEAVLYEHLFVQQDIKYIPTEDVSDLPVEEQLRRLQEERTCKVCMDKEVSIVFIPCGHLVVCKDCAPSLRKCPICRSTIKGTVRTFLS

Work on `C[C@H]1COC[C@H](C)N1c1c(NC(=O)Nc2ccnc(C(F)(F)F)c2)cnc2cc(Cl)nn12` yielded a concentration [1] of 23.6 µM, a clearance [2] of 11 mL/min/kg and an IC50 [3] of 140 nM. For the same molecule, the IC50 (BJAB) was 2000 nM, the Activity [4] was “Non-Toxic” and the Activity [5] was “Non-Toxic”. For the same molecule, the “log(permeability)” value [6] was -4.2, the Vd [7] was 9.4 L/kg and the Activity (Mus musculus) was 25%. For the same molecule, the IC50 [8] was 9 nM, the solubility thermodynamic [9] was 4 µg/mL (≈ 8.51 µM) and the AUC/dose [10] was 3100 nM·h. For the same molecule, the Activity (TMD8) was “Active”, the inhibition [11] was “Dose-dependent effect” and the clearance [12] was 41 mL/min/kg. For the same molecule, the IC50 (OCI-Ly3) was > 10000 nM, the concentration at 12 h [13] was 0.04 µM and the IC50 [14] was 600 nM. For the same molecule, the Activity [15] was “Non-Toxic”.
